Source: ChEMBL document CHEMBL1145884, “Synthesis and biological activity of novel 1beta-methylcarbapenems with oxyiminopyrrolidinylamide moiety” (2003)

Key:
[1] = test system: Escherichia coli; experiment: Compound was evaluated for its antibacterial activity against Escherichia coli 0157:H7; type: functional
[2] = test system: Klebsiella pneumoniae; experiment: Compound was evaluated for its antibacterial activity against Klebsiella pneumoniae 1 ESBL; type: functional
[3] = test system: Shigella sonnei; experiment: Compound was evaluated for its antibacterial activity against Shigella sonnei ATCC 9290; type: functional
[4] = test system: Escherichia coli; experiment: Compound was evaluated for its antibacterial activity against Escherichia coli CCARM 1113 MDR; type: functional
[5] = test system: Escherichia coli; experiment: Compound was evaluated for its antibacterial activity against Escherichia coli CCARM 1115 MDR; type: functional
[6] = test system: Escherichia coli; experiment: Compound was evaluated for its antibacterial activity against Escherichia coli CCARM 1111 MDR; type: functional
[7] = test system: Salmonella typhimurium; experiment: Compound was evaluated for its antibacterial activity against Salmonella Typhimurium; type: functional, Salmonella enterica subsp. enterica serovar Typhimurium; conditions: Salmonella enterica
[8] = test system: Escherichia coli; experiment: Compound was evaluated for its antibacterial activity against Escherichia coli DC 2; type: functional
[9] = test system: Escherichia coli; experiment: Compound was evaluated for its antibacterial activity against Escherichia coli CCARM 1117 MDR; type: functional
[10] = test system: Klebsiella oxytoca; experiment: Compound was evaluated for its antibacterial activity against Klebsiella oxytoca 1082E; type: functional
[11] = test system: Klebsiella pneumoniae; experiment: Compound was evaluated for its antibacterial activity against Klebsiella pneumoniae 4 ESBL; type: functional
[12] = test system: Pseudomonas aeruginosa; experiment: Compound was evaluated for its antibacterial activity against Pseudomonas aeruginosa 3 MDR; type: functional
[13] = test system: Pseudomonas aeruginosa; experiment: Compound was evaluated for its antibacterial activity against Pseudomonas aeruginosa 1 MDR; type: functional
[14] = test system: Enterobacter cloacae; experiment: Compound was evaluated for its antibacterial activity against Enterobacter cloacae P99; type: functional
[15] = test system: Escherichia coli; experiment: Compound was evaluated for its antibacterial activity against Escherichia coli CCARM 1114 MDR; type: functional
[16] = test system: Salmonella typhimurium; experiment: Compound was evaluated for its antibacterial activity against Salmonella Typhimurium 2; type: functional, Salmonella enterica subsp. enterica serovar Typhimurium; conditions: Salmonella enterica
[17] = test system: Klebsiella pneumoniae; experiment: Compound was evaluated for its antibacterial activity against Klebsiella pneumoniae 5 ESBL; type: functional
[18] = test system: Escherichia coli; experiment: Compound was evaluated for its antibacterial activity against Escherichia coli DC 0; type: functional
[19] = test system: Klebsiella pneumoniae; experiment: Compound was evaluated for its antibacterial activity against Klebsiella pneumoniae 8 ESBL; type: functional
[20] = test system: Pseudomonas aeruginosa; experiment: Compound was evaluated for its antibacterial activity against Pseudomonas aeruginosa 2 MDR; type: functional
[21] = test system: Escherichia coli; experiment: Compound was evaluated for its antibacterial activity against Escherichia coli CCARM 1109 MDR; type: functional
[22] = test system: Klebsiella pneumoniae; experiment: Compound was evaluated for its antibacterial activity against Klebsiella pneumoniae 10 ESBL; type: functional
[23] = test system: Pseudomonas aeruginosa; experiment: Compound was evaluated for its antibacterial activity against Pseudomonas aeruginosa ATCC 27853; type: functional
[24] = test system: Klebsiella pneumoniae; experiment: Compound was evaluated for its antibacterial activity against Klebsiella pneumoniae 9 ESBL; type: functional
[25] = test system: Klebsiella pneumoniae; experiment: Compound was evaluated for its antibacterial activity against Klebsiella pneumoniae 3 ESBL; type: functional
[26] = test system: Escherichia coli; experiment: Compound was evaluated for its antibacterial activity against Escherichia coli CCARM 1110 MDR; type: functional
[27] = test system: Escherichia coli; experiment: Compound was evaluated for its antibacterial activity against Escherichia coli CCARM 1108 MDR; type: functional
[28] = test system: Salmonella typhimurium; experiment: Compound was evaluated for its antibacterial activity against Salmonella Typhimurium 1; type: functional, Salmonella enterica subsp. enterica serovar Typhimurium; conditions: Salmonella enterica
[29] = test system: Escherichia coli; experiment: Compound was evaluated for its antibacterial activity against Escherichia coli TEM; type: functional
[30] = test system: Salmonella enteritidis; experiment: Compound was evaluated for its antibacterial activity against […] enteritidis 2; type: functional, Salmonella enterica subsp. enterica serovar Enteritidis; conditions: Salmonella enterica
[31] = test system: Shigella flexneri; experiment: Compound was evaluated for its antibacterial activity against Shigella flexneri ATCC 9199; type: functional
[32] = test system: Klebsiella pneumoniae; experiment: Compound was evaluated for its antibacterial activity against Klebsiella pneumoniae 6 ESBL; type: functional
[33] = test system: Klebsiella pneumoniae; experiment: Compound was evaluated for its antibacterial activity against Klebsiella pneumoniae 2 ESBL; type: functional
[34] = test system: Escherichia coli; experiment: Compound was evaluated for its antibacterial activity against Escherichia coli ATCC 25922; type: functional
[35] = test system: Escherichia coli; experiment: Compound was evaluated for its antibacterial activity against Escherichia coli CCARM 1112 MDR; type: functional
[36] = test system: Salmonella enteritidis; experiment: Compound was evaluated for its antibacterial activity against […] enteritidis 3; type: functional, Salmonella enterica subsp. enterica serovar Enteritidis; conditions: Salmonella enterica
[37] = test system: Klebsiella pneumoniae; experiment: Compound was evaluated for its antibacterial activity against Klebsiella pneumoniae 7 ESBL; type: functional
[38] = test system: Escherichia coli; experiment: Compound was evaluated for its antibacterial activity against Escherichia coli CCARM 1116 MDR; type: functional
[39] = test system: Salmonella enteritidis; experiment: Compound was evaluated for its antibacterial activity against […] enteritidis; type: functional, Salmonella enterica subsp. enterica serovar Enteritidis; conditions: Salmonella enterica
[40] = test system: Salmonella enteritidis; experiment: Compound was evaluated for its antibacterial activity against […] enteritidis 1; type: functional, Salmonella enterica subsp. enterica serovar Enteritidis; conditions: Salmonella enterica

C[C@@H](O)[C@H]1C(=O)N2C(C(=O)[O-])=C(S[C@@H]3CN[C@H](C(=O)Nc4cccc(C(=O)O)c4)C3)[C@H](C)[C@H]12.O.[Na+]
MIC [1]: ≤ 0.008 µg/mL
MIC [2]: 0.016 µg/mL
MIC [3]: ≤ 0.008 µg/mL
MIC [4]: 0.06 µg/mL
MIC [5]: 0.06 µg/mL
MIC [6]: ≤ 0.008 µg/mL
MIC [7]: 0.016 µg/mL
MIC [8]: 0.016 µg/mL
MIC [9]: 0.03 µg/mL
MIC [10]: 0.03 µg/mL
MIC [11]: 0.06 µg/mL
MIC [12]: 8 µg/mL
MIC [13]: 8 µg/mL
MIC [14]: 0.06 µg/mL
MIC [15]: 0.25 µg/mL
MIC [16]: ≤ 0.008 µg/mL
MIC [17]: ≤ 0.008 µg/mL
MIC [18]: ≤ 0.008 µg/mL
MIC [19]: 1 µg/mL
MIC [20]: 8 µg/mL
MIC [21]: 0.06 µg/mL
MIC [22]: 0.016 µg/mL
MIC [23]: 4 µg/mL
MIC [24]: 0.016 µg/mL
MIC [25]: 0.5 µg/mL
MIC [26]: 0.03 µg/mL
MIC [27]: 0.016 µg/mL
MIC [28]: ≤ 0.008 µg/mL
MIC [29]: 0.016 µg/mL
MIC [30]: ≤ 0.008 µg/mL
MIC [31]: ≤ 0.008 µg/mL
MIC [32]: 0.06 µg/mL
MIC [33]: 0.016 µg/mL
MIC [34]: ≤ 0.008 µg/mL
MIC [35]: 0.016 µg/mL
MIC [36]: ≤ 0.008 µg/mL
MIC [37]: 0.25 µg/mL
MIC [38]: ≤ 0.008 µg/mL
MIC [39]: ≤ 0.008 µg/mL
MIC [40]: ≤ 0.008 µg/mL
